Results published in article PMC9867837 (Cancer letters, 2022).
pKd: −log10 of the molar value.

What was measured:
hERG = target: T1, hERG (Homo sapiens, UniProt Q12809); test: CEREP SafetyScreen44, hERG; assay type: binding; settings: 10 μM H182
T1 construct: Eurofins-CEREP (contract research organisation that ran the assay)
Procedure: (§1) The in vivo activity of a compound is influenced by its overall bioavailability, which is also driven by parameters, such as solubility, permeability, and metabolism. […] These values are all above the industry cut-off of 60 μg/ml. […] It has CLint in human hepatocytes of 16 μL/min/10^6 cells, which falls into moderate stability range [43].

MDA-MB-231 cells = test: Immunoblotting for cleaved PARP and caspase 3; assay type: cell-based, human; settings: 1 μM for 0–24 h or increasing concentration for 2 h
Procedure: (§2) These studies were performed as previously described. Details are presented in Supplementary Information, “Methods”.
Aberrantly-active Stat3 promotes tumor cell growth and proliferation, survival, migration, invasion, and metastasis.
(§3) These studies were performed as previously described [1 -3] . Briefly, snap-frozen tumor tissues or cultured cells treated or not were harvested and whole-cell or tissue lysates were prepared in radioimmunoprecipitation assay (RIPA) buffer. Samples of equal total protein were subjected to SDS - PAGE and immunoblotting analysis. Primary antibodies used were anti- Stat3, pY705-Stat3, pS727Stat3, […]
(§4) Akt, pT202/Y204Erk1/2 (p44/42), Erk1/2, PARP , caspase 3, c-Myc, survivin, VEGF, β-actin, α/β-tubulin, and GAPDH. For the studies of the effects of cell density and confluence on pY705Stat3, cells were seeded […] in culture dishes. The next day, cells were untreated (DMSO control, […]
0.1%) or treated at the same time with 1 or 2 µM H182, allowed to incubate for the indicated time and then harvested for whole-cell lysate preparation and SDS -PAGE / immunoblotting analy sis. […]
(§5) concentration of H182 for 6 h and then treated with 0- 100 nM docetaxel or 0-20 µM cisplatin for a total of 72 h. Viable cell numbers were assessed by a CyQuant cell proliferation kit according to the manufacturer’s instructions (Thermo/Life Technologies Corp, Carlsbad, CA). […]

Stat3 = Stat3 (Homo sapiens, UniProt P40763); test: Stat3 activity and target gene expression in extracted tumor tissues; assay type: in vivo, mouse; design: Tissue lysates of equal total protein prepared from the extracted tumors; from tissue; host or cells: extracted tumour tissue from treated and untreated mice
Stat3, sequence (P40763 2-770 limits assumed): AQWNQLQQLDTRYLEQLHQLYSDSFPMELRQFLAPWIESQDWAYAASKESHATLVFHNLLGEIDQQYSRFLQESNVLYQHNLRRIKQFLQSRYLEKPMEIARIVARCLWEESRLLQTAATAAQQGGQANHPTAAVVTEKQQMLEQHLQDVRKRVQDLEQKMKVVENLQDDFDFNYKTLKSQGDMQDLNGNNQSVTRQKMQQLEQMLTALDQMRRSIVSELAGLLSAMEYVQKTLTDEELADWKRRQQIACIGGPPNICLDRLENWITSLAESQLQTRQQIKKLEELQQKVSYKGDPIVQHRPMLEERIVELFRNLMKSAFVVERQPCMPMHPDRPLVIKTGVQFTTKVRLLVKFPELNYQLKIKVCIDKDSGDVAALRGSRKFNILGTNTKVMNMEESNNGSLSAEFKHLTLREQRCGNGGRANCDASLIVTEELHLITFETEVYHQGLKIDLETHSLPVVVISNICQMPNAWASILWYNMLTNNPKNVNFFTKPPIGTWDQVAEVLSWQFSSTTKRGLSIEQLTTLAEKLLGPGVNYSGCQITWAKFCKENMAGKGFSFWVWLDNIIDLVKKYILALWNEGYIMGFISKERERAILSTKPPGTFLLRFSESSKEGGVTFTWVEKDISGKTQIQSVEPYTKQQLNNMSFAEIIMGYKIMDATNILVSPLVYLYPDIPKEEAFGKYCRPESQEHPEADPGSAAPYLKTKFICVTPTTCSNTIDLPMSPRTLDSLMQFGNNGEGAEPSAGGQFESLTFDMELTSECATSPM
Procedure: We then profiled tumor tissues for Stat3 activity and Stat3 target gene expression as pharmacodynamic markers of therapeutic response. Tissue lysates of equal total protein prepared from the extracted tumors were subjected to Stat3 DNA-binding assay/EMSA analysis or SDS-PAGE and immunoblotting analysis.
as §3, §4, §5

[1] = target: T2, purified recombinant Stat3 (rStat3) (Homo sapiens, UniProt P40763); test: Isothermal titration calorimetry (ITC); assay type: binding
T2 construct: made in house; host or cells: E. coli BL21(DE3)
T2 sequence (P40763 127-711): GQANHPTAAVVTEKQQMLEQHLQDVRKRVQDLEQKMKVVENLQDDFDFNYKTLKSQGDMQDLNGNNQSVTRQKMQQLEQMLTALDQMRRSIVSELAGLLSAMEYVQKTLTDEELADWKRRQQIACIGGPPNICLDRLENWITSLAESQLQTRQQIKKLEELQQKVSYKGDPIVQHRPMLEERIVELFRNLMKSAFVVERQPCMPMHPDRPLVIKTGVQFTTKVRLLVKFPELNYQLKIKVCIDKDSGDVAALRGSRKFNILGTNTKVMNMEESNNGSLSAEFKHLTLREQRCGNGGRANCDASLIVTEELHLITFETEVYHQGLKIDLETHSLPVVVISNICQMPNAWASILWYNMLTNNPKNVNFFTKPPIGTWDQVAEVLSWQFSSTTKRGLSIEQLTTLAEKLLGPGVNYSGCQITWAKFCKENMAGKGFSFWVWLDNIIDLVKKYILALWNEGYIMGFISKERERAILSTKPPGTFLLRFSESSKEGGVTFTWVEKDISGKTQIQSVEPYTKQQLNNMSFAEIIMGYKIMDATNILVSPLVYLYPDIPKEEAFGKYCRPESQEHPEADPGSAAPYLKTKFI
Procedure: The ITC experiment was carried out as previously described. Details are provided in Supplementary Information, “Methods”. […]
1.2.10. Isothermal titration calorimetry (ITC)
The ITC experiment was carried out as previously described with some modification using Malvern Panalytical MicroCal PEAQ-ITC (United Kingdom). Studies were done at 25 °C. Briefly, H182, previously suspended in 100 % DMSO were diluted in 20 mM HEPES, 150 mM KCl buffer so the final DMSO was 5 %. To avoid buffer mismatch, Stat3 in HEPES buffer was diluted in HEPES buffer with 5% DMSO final concentration. Three hundred microliter (300 μL) aliquots of 3.0 μM Stat3 w ere placed in the cell and titrated with 250 μM H182. Titrations took place by injecting 2 μL H182 in a 2.5 min injection for the titration peak to return to the baseline. The K D was calculated using the MicroCal PEAQ-ITC analysis […]
software and Prism GraphPad software (San Diego, CA), using the one-site model. Control experiments were carried out by titration H182 into buffer, buffer into Stat3, and buffer into buffer. […]
DMSO (control) was added, and then immediately, cells were imaged with a Canon Powershot A640 digital camera under a phase contrast with the Zeiss Axiovert 200 inverted microscope at 10X magnification and noted as the zero time-point. Following culture for 22 h to allow cells to migrate into the denuded area, the culture was then imaged again at the same field that was marked on the plate.
1.2.12. Annexin V binding/apoptosis and flow cytometric analysis
For apoptosis analysis, annexin V/propidium iodide (PI) staining was performed. Briefly, cells in culture and untreated (DMSO, control) or treated with H182 were harvested and stained with FITC -annexin V (Apoptosis Detection Kit), according to manufacturer’s instructions (BD Biosciences, San Jose, CA). […]
1.2.13. Assessment of Physicochemical Properties
Solubility, human (HLM) and mouse liver microsomal (MLM), and plasma stability studies were performed by Eurofins Cerep Panlabs and Eurofin Discovery Services (www.eurofins.com/PharmaDiscovery), while

[2] = tested on: pS727Stat3, pYStat1, pY416Src, pY1068EGFR, pShc, pErk1/2MAPK, pS473Akt, and pJAK2; test: Western blotting for other signaling proteins in TNBC cells; assay type: cell-based, human; settings: MDA-MB-231 and MDA-MB-468, 0.5–3 μM H182 for 2 h
Procedure: as §2
We sought to assess any non-specific effects of the azetidine compounds. […] Samples of equal total protein were subjected to SDS-PAGE and Western blotting analysis. […] The total protein levels were unchanged, and the tubulin, β-actin, and GAPDH levels show equal protein loading.
as §3, §4, §5

[3] = Human hepatocyte stability; assay type: in vitro ADME
Procedure: as §1

T1 sequence (Q12809 whole entry): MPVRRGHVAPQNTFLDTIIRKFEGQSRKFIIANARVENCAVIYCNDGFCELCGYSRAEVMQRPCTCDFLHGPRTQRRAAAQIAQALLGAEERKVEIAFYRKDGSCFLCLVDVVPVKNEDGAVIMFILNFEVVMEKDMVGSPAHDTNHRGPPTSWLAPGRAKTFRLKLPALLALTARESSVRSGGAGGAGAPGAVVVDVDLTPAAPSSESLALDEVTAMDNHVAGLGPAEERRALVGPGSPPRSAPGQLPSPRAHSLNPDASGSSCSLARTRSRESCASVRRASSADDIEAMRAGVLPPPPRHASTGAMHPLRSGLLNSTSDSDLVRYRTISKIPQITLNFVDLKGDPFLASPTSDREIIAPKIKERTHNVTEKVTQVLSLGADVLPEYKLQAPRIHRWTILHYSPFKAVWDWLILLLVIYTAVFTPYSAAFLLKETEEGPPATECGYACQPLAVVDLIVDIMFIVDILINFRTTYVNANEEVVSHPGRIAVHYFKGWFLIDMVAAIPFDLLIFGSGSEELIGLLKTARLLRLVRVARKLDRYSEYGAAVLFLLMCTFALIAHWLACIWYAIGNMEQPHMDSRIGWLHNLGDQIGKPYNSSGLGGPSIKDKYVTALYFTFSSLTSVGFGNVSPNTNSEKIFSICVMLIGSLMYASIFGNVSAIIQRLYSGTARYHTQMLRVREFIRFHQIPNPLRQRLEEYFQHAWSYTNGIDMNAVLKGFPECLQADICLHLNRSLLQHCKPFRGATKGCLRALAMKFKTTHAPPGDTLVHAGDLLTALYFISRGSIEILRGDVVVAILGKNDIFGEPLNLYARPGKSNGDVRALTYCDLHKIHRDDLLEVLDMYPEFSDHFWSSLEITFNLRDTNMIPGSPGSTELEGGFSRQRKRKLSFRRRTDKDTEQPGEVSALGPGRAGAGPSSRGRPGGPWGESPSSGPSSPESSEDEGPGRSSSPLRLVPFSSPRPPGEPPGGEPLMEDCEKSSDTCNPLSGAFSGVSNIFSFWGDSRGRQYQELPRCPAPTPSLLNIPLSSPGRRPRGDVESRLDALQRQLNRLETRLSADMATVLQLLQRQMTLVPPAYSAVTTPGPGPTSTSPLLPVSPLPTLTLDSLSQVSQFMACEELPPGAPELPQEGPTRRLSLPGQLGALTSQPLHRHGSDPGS

In the case of O=C([C@H]1CCN1S(=O)(=O)c1c(F)c(F)c(F)c(F)c1F)N(Cc1ccc(C2CCCCC2)cn1)c1ccc2c(=O)[nH]ncc2c1 [Compound H182], the inhibition at 10 µM (hERG) was over 80%, the “Cleaved PARP and caspase 3” value (MDA-MB-231 cells) was “moderate levels” and the “Stat3 DNA-binding activity in tumor tissues” value (Stat3; EMSA of tumor tissue lysates, treated vs untreated control) was “suppressed Stat3 DNA-binding activity in tumor tissues”. For the same compound, the “Expression of c-Myc, VEGF, and survivin in tumor tissues” value (Stat3; immunoblotting of tumor tissue lysates) was “suppression of the expression of Stat3 downstream genes”, the ΔG [1] was -7.79 kcal/mol and the ΔH [1] was -4.16 kcal/mol. For the same compound, the “−TΔS” value [1] was -3.63 kcal/mol, the pKd ([1]; one-site model, 25 °C) was 5.71 and the “Effect on constitutive or EGF-induced pS727Stat3, pYStat1, pY416Src, pY1068EGFR, pShc, pErk1/2MAPK, pS473Akt, and pJAK2” value [2] was “no inhibitory effect”. The “Metabolic Stability Human Hepatocytes CLint” value [3] was 14.6 μL/min/10^6 cells, the half-life ([3]; hepatocytes, read-out: Human Hepatocytes t1/2) was 1.13 h and the hepatocyte CLint ([3]; hepatocytes, read-out: Metabolic Stability Human Hepatocytes CLint) was 16 µL/min/1e6 cells.
